The values that follow come from patent US20090220507A1, “INHIBITION OF EXTRACELLULAR SIGNAL-REGULATED KINASE 1/2 AS A TREATMENT FOR CARDIAC HYPERTROPHY AND HEART FAILURE” (priority 2005, published 2009).

Entries after “also recorded” stand apart in the source; their conditions may differ. * marks the point of attachment. Myristoyl = CCCCCCCCCCCCCC(=O)*

Assay [1] concerns ERK1/2. The assay can be described thus: Western blot of phosphorylated ERK1/2 in isoproterenol-stimulated NRVMs. The class given is cell-based, rat. The settings on record: for isoproterenol activation of ERK1/2 (phosphorylation): all time points (5, 30, 60 minutes, 6, 24, 33, 48 hours). Here is the method:
(§1) Materials. Isoproterenol (Sigma) was dissolved in sterile H2O containing 1 mmol/L Ascorbic Acid, and the concentrations used are described in the results section.
(§2) Cell Culture. Neonatal rat cardiac ventricular myocytes (NRVMs) were cultured as previously described (Simpson et al., 1982; Simpson and Savion, 1982; Long et al., 1992; Waspe et al., 1990). Briefly, cells were isolated by trypsin digestion from the ventricles of 1-3 day old rats. Isolation procedures were done in a very gentle manner and cells were plated at a concentration of 1.5×10^5 cells per well in 12-well tissue culture plates in medium containing serum. 24 hours later the media was changed to serum free media containing insulin, transferin, bovine serum albumin, vitamin B12 and penicillin. Wells were pre-coated with a 0.1% gelatin solution and dried in a hood under UV lights. In addition, all media solutions were supplemented with Hepes (pH 7.5) to a final concentration of 20 mmol/L in order to buffer the pH of the media.
ERK1/2 Western Blots. Phosphorylated ERK1/2 protein extraction was performed essentially as described in Headley et al. (2004).
ERK1/2 activation is dependent on calcineurin and on CaMKII.

For assay [2], the system named is β1-AR-mediated fetal gene expression in NRVMs. Description: RNase protection assay of isoproterenol-induced fetal gene program mRNA in NRVMs. Format: cell-based, rat. Here is the method:
as §1, §2
RNase Protection Assay. Total RNA was extracted by TRIZol (Invitrogen) and used in RNase protection assays (RPA). RPAs were performed essentially as described (Patten et al., 1996; Kinugawa et al., 2001). Briefly, 5 μg of total RNA was hybridized against probes specific to skeletal α-actin, SRCA2A, α-MyHC, β-MyHC, ANF, BNP and GAPDH. RNase protection experiments were performed using the RPAII kit (Ambion). RPA experiments were performed from mRNA extracted from a minimum of three different experiments.
RNase Protection Assay: Total RNA was extracted by TRIZol (Invitrogen) and used in RNase protection assays (RPA). RPAs were performed essentially as described (Patten et al., 1996; Kinuguwa et al., 2001). Briefly, 5 μg of total RNA was hybridized against probes specific to skeletal α-actin, SRCA2A, α-MyHC, β-MyHC, ANF, BNP and GAPDH. RNase protection experiments (RPAs) were performed using the RPAII kit (Ambion). RPA experiments were performed from mRNA extracted from a minimum of three different experiments.

[3] abbreviates: inhibitor 1 hour after ISO treatment, mRNA extracted 48 hours later, RPA.
Where [4] appears, read: inhibitor 1 hour before isoproterenol, RPA, mRNA normalized to GAPDH.
Setting [5] is: inhibitor alone, without isoproterenol.

As for `CC(C)NCC(O)c1ccc(O)c(O)c1` (centres unmarked) [isoproterenol], the “ERK phosphorylation as a surrogate marker for activation” value in assay [1] (isoproterenol stimulation, 5 minutes, 33 hours and 48 hours) is reported as “increased”.

For “14-22 Amide myristoylated (Myristoyl-GRTGRRNAI-NH2; SMILES CCCCCCCCCCCCCC(=O)NCC(=O)N[C@@H](CCCNC(=N)N)C(=O)N[C@H](C(=O)NCC(=O)N[C@@H](CCCNC(=N)N)C(=O)N[C@@H](CCCNC(=N)N)C(=O)N[C@@H](CC(N)=O)C(=O)N[C@@H](C)C(=O)N[C@H](C(N)=O)[C@@H](C)CC)[C@@H](C)O; UniProt P61925 15-23, looked up, fragment) [PKI14-22]”, the “isoproterenol activation of ERK1/2 (phosphorylation)” value in assay [1] (inhibitor pre-treatment) is “did not prevent”.

Turning to `N#CC(=C(/N)Sc1ccccc1N)/C(C#N)=C(\N)Sc1ccccc1N` [U0126], in assay [2] (setting [3]), the “ISO-mediated down-regulation of αMyHC” value is given as “prevents” and the “ISO-mediated up-regulation of the fetal isoforms (fetal gene expression)” value is on record as “prevents”. In addition, in assay [2] (setting [4]), the “isoproterenol-associated down-regulation (repression) of SRCA2a” value is on record as “does not prevent”, the “isoproterenol-associated down-regulation (repression) of α-MyHC” value was “blocks; also recorded: prevents”, the “isoproterenol-associated up-regulation (induction) of ANP” value was “blocks” and the “isoproterenol-associated up-regulation of BNP” value was “blocks”. In addition, in assay [2] (setting [4]), the “isoproterenol-associated up-regulation of skeletal α-actin” value is on record as “blocks” and the “up-regulation (activation) of β-MyHC in response to isoproterenol stimulation” value was “prevents”. In addition, the “ISO-mediated up-regulation of the fetal isoforms” value in assay [2] (inhibitor 1 hour prior to ISO treatment, mRNA extracted 48 hours later, RPA) is on record as “prevents”. The “isoproterenol activation of ERK1/2 (phosphorylation)” value in assay [1] (inhibitor pre-treatment) is “completely abrogates”.

In the case of `COc1ccc(S(=O)(=O)N(CCO)c2ccccc2CN(C)C/C=C/c2ccc(Cl)cc2)cc1` [KN-93], in assay [2] (setting [4]), the “isoproterenol-associated down-regulation (repression) of SRCA2a” value is listed as “not capable of preventing”, the “isoproterenol-associated down-regulation (repression) of α-MyHC” value is “prevented”, the “isoproterenol-associated up-regulation (induction) of ANP” value is “prevented” and the “isoproterenol-associated up-regulation of BNP” value was “prevented”. In assay [2] (setting [4]), the “isoproterenol-associated up-regulation of skeletal α-actin” value is reported as “prevented” and the “isoproterenol-induced changes in endogenous mRNA fetal gene program induction (all changes in fetal gene expression)” value was “prevented”. Moreover, in assay [2] (setting [5]), the “ANP mRNA levels” value is “decrease”, the “SRCA2a mRNA levels” value is given as “decrease” and the “β-MyHC mRNA levels” value is “decrease”. Also, the “activation of ERK1/2 in response to isoproterenol (phosphorylation)” value in assay [1] (inhibitor pre-treatment, 33 and 48 hour isoproterenol time points) is given as “blocked”.

On to `NCCOB(c1ccccc1)c1ccccc1` [AFB-30, 2-APB], for which the “isoproterenol-induced changes in endogenous mRNA fetal gene program induction (all changes in fetal gene expression)” value in assay [2] (setting [4]) is listed as “completely abrogated”.
